# Test results published in patent US20240391923A1, “METHIONINE ADENOSYLTRANSFERASE 2A INHIBITOR FOR TREATING MTAP DELETION-TYPE CANCER” (SUZHOU GENHOUSE BIO CO., LTD., priority 2022, published 2024).
# System: Human pancreatic cancer cells KP-4
# Experiment: Mouse xenograft tumor pharmacodynamic model, KP-4
# Format: in vivo
# Conditions: KP-4 xenograft, 29 days of administration
# Experimental: In this example, the in vivo efficacy of the compound in a mouse xenograft tumor model after intragastric (PO) administration was tested.
# Human pancreatic cancer cells KP-4 were cultured in monolayer in vitro under the condition of 1640 medium containing […] and […] and streptomycin, and the culture was carried out at 37° C. with 5% CO2. The cells were digested with trypsin three times a week for passaging. When the saturation degree of the cells was 80-90%, the cells were collected, counted and inoculated. 0.1 mL (5×10^6 cells) of KP-4 cells were subcutaneously inoculated on the right back of each mouse. On day 34 after inoculation of the cells, the mean tumor volume reached 154 mm^3. The mice were randomly grouped for administration and intragastrically dosed once daily. Changes in body weight and tumor volume were recorded. After 29 days of administration, the experiment was ended. Tumor volume changes and mouse body weight changes were counted and analyzed. AG270 (CAS: 2201056-66-6) was the positive control compound.
smiles,measurement,setting,value
Cn1cc2c(n1)c(=O)n(-c1cccc3[nH]ncc13)c1cc(Cl)c(F)cc21 [Compound B257],Tumor growth inhibition percentage (TGI),PO 0.3 mg/kg once a day,once a day TGI = 66.25%
same,Tumor growth inhibition percentage (TGI),PO 1 mg/kg once a day,once a day TGI = 90.06%
same,Tumor growth inhibition percentage (TGI),PO 3 mg/kg once a day,once a day TGI = 97.08%
